Measured values: patent publication US5534533A, “Carboxylate derivatives exhibiting phospholipase A2 inhibitory activity” (Shionogi & Co., Ltd., priority 1993, dated 1996)

Assays:
Human secretory PLA2 = target: T1, Human secretory PLA2 (Homo sapiens, UniProt P14555); experiment: Secretory PLA2 inhibitory activity (diheptanoyl thio PC substrate, absorbance at 405 nm); type: biochemical; settings: diheptanoyl thio PC 1 mM, Triton X100 0.3 mM, pH 7.3, CaCl2 10 mM, 30 minutes, read-out: s-PLA2 Inhibition IC50
T1 sequence (P14555 21-144): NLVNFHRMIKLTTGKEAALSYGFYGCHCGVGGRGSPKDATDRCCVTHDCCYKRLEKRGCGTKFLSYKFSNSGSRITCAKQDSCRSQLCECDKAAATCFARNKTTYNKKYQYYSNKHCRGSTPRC
Procedure: Secretory PLA2 activity was assayed according to the method described in Penynolds L. J., Hughes L. L., Dennis E. A. et al. Anal. Biochem. 201,190-197 (1992).
Diheptanoyl thiophosphatidylcholine which was prepared according to the procedure described in the literature was used as a substrate. Human secretory PLA2 was used as an enzyme. The diheptanoyl thio PC (1 mM) was reacted with the human secretory PLA2 in the presence of Triton X100 (0.3 mM) and 5,5'-dithiobis-(2-nitrobenzoic acid) (125 μM) in Tris buffer (25 mM, pH 7.3), CaCl2 (10 mM), KCI (100 mM), bovine serum albumin (1.0 mg/ml), and then the change in absorbance at 405 nm at the time of 30 minutes after the reaction was assayed.
Inhibitory activity (%) was estimated by the formula: [(the change in absorbance with the inhibitor and PLA2 ·the change in absorbance with the inhibitor and without PLA2)/(the change in absorbance without the inhibitor and with PLA2 ·the change in absorbance without the inhibitor and PLA2)]×100.
IC50 value (μM) was calculated from graph showing inhibitory values on the vertical axis and log of concentrations of the inhibitor on the horizontal axis.

[1] = target: T2, intracellular PLA2 (cytosolic PLA2, cPLA2) (Homo sapiens, UniProt P47712); experiment: Intracellular PLA2 (cPLA2) inhibitory activity (14C-arachidonyl phosphatidylcholine substrate); type: biochemical; settings: 2 μM radiolabelled phosphatidylcholine, 1 μM dioleoylglycerol, 1 mM CaCl2, pH 7.4; read-out: c-PLA2 Inhibition IC50
T2 sequence (P47712 1-749): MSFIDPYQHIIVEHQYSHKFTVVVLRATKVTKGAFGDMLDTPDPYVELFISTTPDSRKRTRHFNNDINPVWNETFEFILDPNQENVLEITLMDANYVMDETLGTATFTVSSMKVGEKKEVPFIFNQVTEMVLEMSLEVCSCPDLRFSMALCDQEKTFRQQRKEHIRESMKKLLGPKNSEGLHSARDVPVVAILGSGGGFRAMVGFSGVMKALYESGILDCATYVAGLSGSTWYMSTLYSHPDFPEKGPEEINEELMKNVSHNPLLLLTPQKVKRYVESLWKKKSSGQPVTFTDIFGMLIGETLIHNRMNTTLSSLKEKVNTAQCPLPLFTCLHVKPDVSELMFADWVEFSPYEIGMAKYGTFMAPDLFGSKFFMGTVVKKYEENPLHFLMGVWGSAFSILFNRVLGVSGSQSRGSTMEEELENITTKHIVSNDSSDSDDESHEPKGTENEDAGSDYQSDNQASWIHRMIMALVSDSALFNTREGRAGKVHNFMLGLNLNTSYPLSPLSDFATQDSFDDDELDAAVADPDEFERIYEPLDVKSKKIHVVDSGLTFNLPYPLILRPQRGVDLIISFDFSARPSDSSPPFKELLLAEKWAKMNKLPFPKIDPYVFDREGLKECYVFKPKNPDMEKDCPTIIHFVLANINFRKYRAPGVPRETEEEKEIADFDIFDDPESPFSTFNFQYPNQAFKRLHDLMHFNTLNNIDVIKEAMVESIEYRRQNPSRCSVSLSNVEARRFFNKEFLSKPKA
Procedure: cPLA2 activity was assayed according to the method described in R. M. Kramer, E. F. Roberts, J. Manetta and J. E. Putnam, J. Biol. Chem., 268 (8), 5268-5272 (1991). Briefly, intracellular PLA2 activity was assayed using supersonic treated […] which contain 1-palmitoyl-2-[^14 C]arachidonyl-sn-glycero-3-phosphocholine and sn-1, 2-dioleoylglycerol at a molar ratio of 2:1. This test mixture contained 1 mM CaCl2, 2 mM dithiothreitol, 150 mM NaCl, 50 mM Hepes, pH 7.4 and 0.1 mg/ml BSA. A substrate is a 2 μM radioisotope labelled phosphatidylcholine ribosome containing 1 μM dioleoylglycerol. IC50 value is calculating in the same manner as in calculating it for secretory PLA2 inhibitory activity.

| SMILES | IC50 (Human secretory PLA2) [µM] | IC50 [1] [µM] |
| --- | --- | --- |
| COc1c(C)c(OC(=O)c2c(C)c(C)c(OCCC(C)CCCC(C)C)c(C)c2OC)c(C)c(C)c1C(=O)O (stereo not shown) [Example 50, 4-[4-(3,7-Dimethyloctyloxy)-2-methoxy-3,5,6-trimethylbenzoyloxy]-2-methoxy-3,5,6-trimethylbenzoic Acid] | 50 | 3 |
| COc1c(C)c(OC(=O)c2c(C)c(C)c(OCCCNS(=O)(=O)c3ccccc3)c(C)c2OC)c(C)c(C)c1C(=O)O [Example 54, 4-{4-[(3-Phenylsulfonylamino)propoxy]-2-methoxy-3,5,6-trimethylbenzoyloxy}-2-methoxy-3,5,6-trimethylbenzoic Acid] | 17 | > 50 |
| COc1c(C)c(OC(=O)c2c(C)c(C)c(OCCCNS(=O)(=O)c3ccc(F)cc3)c(C)c2OC)c(C)c(C)c1C(=O)O [Example 56, 4-{4-[3-(4-Fluorophenyl)sulfonylaminopropoxy]-2-methoxy-3,5,6-trimethylbenzoyloxy}-2-methoxy-3,5,6 trimethylbenzoic Acid] | 14 | > 50 |
| COc1c(C)c(OC(=O)c2c(C)c(C)c(OCCCN(C(=O)OC(C)(C)C)S(C)(=O)=O)c(C)c2OC)c(C)c(C)c1C(=O)O [Example 59, 4-[4-(3-t-Butoxycarbonylmethylsulfonylaminopropoxy)-2-methoxy-3,5,6-trimethylbenzoyloxy]-2-methoxy-3,5,6-trimethylbenzoic Acid] | 11 | > 50 |
| COc1c(C)c(OC(=O)c2c(C)c(C)c(OCCCN(S(C)(=O)=O)S(C)(=O)=O)c(C)c2OC)c(C)c(C)c1C(=O)O [Example 60, 4-[4-(3-bis-Methylsulfonylaminopropoxy)-2-methoxy-3,5,6-trimethylbenzoyloxy]-2-methoxy-3,5,6-trimethylbenzoic Acid] | 28 | > 50 |
| COc1c(C)c(OC(=O)c2c(C)c(C)c(OCCCNC(=O)c3ccccc3)c(C)c2OC)c(C)c(C)c1C(=O)O [Example 61, 4-[4-(3-Benzoylaminopropoxy)-2-methoxy-3,5,6-trimethylbenzoyloxy}-2-methoxy-3,5,6-trimethylbenzoic Acid] | 33 | > 50 |
| COc1c(C)c(OC(=O)c2c(C)c(C)c(OCCCN(Cc3ccccc3)Cc3ccccc3)c(C)c2OC)c(C)c(C)c1C(=O)O [Example 63, 4-{4-[3-(bis-Benzylamino)propoxy]-2-methoxy-3,5,6-trimethylbenzoyloxy}-2-methoxy-3,5,6-trimethylbenzoic Acid] | 12 | 2.5 |
| COc1c(C)c(OC(=O)c2c(C)c(C)c(OCCCN3CCC(=C(c4ccccc4)c4ccccc4)CC3)c(C)c2OC)c(C)c(C)c1C(=O)O [Example 66, 4-{4-[3-(4-Benzhydrylidenepiperidin-1-yl)-propoxy]-2-methoxy-3,5,6-trimethylbenzoyloxy}-2-methoxy-3,5,6-trimethylbenzoic Acid] | 18 | 6.8 |
| COc1c(C)c(OC(=O)c2c(C)c(C)c(OCCCN3CCN(C(c4ccccc4)c4ccccc4)CC3)c(C)c2OC)c(C)c(C)c1C(=O)O [Example 67, 4-{4-[3-(Di-Phenylmethylpiperazin-1-yl)propoxy]-2-methoxy-3,5,6-trimethylbenzoyloxy}-2-methoxy-3,5,6-trimethylbenzoic Acid] | 17 | 5.1 |
| COc1c(C)c(OC(=O)c2c(C)c(C)c(OCCCN3CCN(C(c4ccc(F)cc4)c4ccc(F)cc4)CC3)c(C)c2OC)c(C)c(C)c1C(=O)O [Example 68, 4-{4-[3-(Di-4-Fluorophenylmethylpiperazin-1-yl)-propoxy]-2-methoxy-3,5,6-trimethylbenzoyloxy}-2-methoxy-3,5,6-trimethylbenzoic Acid] | 17 | 11 |

Now from value to compound:

| IC50 (Human secretory PLA2) [µM] | IC50 [1] [µM] | SMILES |
| --- | --- | --- |
| 12 | 3 | COc1c(C)c(OC(=O)c2c(C)c(C)c(OCCC=C(c3ccccc3)c3ccccc3)c(C)c2OC)c(C)c(C)c1C(=O)O [Example 48, 4-[4-(4,4-Diphenylbut-3-enyloxy)-2-methoxy-3,5,6-trimethylbenzoyloxy]-2-methoxy-3,5,6-trimethylbenzoic Acid] |
| 2.1 | 4.2 | COc1c(C)c(OC(=O)c2c(C)c(C)c(OCCCN(S(=O)(=O)c3ccccc3)S(=O)(=O)c3ccccc3)c(C)c2OC)c(C)c(C)c1C(=O)O [Example 51, 4-{4-[(3-Bisphenylsulfonylamino)propoxy]-2-methoxy-3,5,6-trimethylbenzoyloxy}-2-methoxy-3,5,6-trimethylbenzoic Acid] |
| 4.5 | 21 | COc1c(C)c(OC(=O)c2c(C)c(C)c(OCCCN(S(C)(=O)=O)S(=O)(=O)c3ccccc3)c(C)c2OC)c(C)c(C)c1C(=O)O [Example 52] |
| 6 | 20 | COc1c(C)c(OC(=O)c2c(C)c(C)c(OCCCN(C)S(=O)(=O)c3ccccc3)c(C)c2OC)c(C)c(C)c1C(=O)O [Example 53] |
| 6.8 | 6.3 | COc1c(C)c(OC(=O)c2c(C)c(C)c(OCCCN(S(=O)(=O)c3ccc(F)cc3)S(=O)(=O)c3ccc(F)cc3)c(C)c2OC)c(C)c(C)c1C(=O)O [Example 55, 4-{4-[3-bis(4-Fluorophenyl)sulfonylaminopropoxy]-2-methoxy-3,5,6-trimethylbenzoyloxy}-2-methoxy-3,5,6-trimethylbenzoic Acid] |
| 5.7 | 16 | COc1c(C)c(OC(=O)c2c(C)c(C)c(OCCCN(S(C)(=O)=O)S(=O)(=O)c3ccc(F)cc3)c(C)c2OC)c(C)c(C)c1C(=O)O [Example 57, 4-{4-[3-Methylsulfonyl-(4-fluorophenyl)sulfonylaminopropoxy]-2-methoxy-3,5,6-trimethylbenzoyloxy}-2-methoxy-3,5,6-trimethylbenzoic Acid] |
| 5.3 | 26 | COc1c(C)c(OC(=O)c2c(C)c(C)c(OCCCN(C)S(=O)(=O)c3ccc(F)cc3)c(C)c2OC)c(C)c(C)c1C(=O)O [Example 58, 4-{4-[3-Methyl-(4-fluorophenyl)sulfonylaminopropoxy]-2-methoxy-3,5,6-trimethylbenzoyloxy}-2-methoxy-3,5,6-trimethylbenzoic Acid] |
| 3.8 | 9.5 | COc1c(C)c(OC(=O)c2c(C)c(C)c(OCCCN(C(=O)c3ccccc3)C(=O)c3ccccc3)c(C)c2OC)c(C)c(C)c1C(=O)O [Example 62, 4-[4-(3-Dibenzoylaminopropoxy)-2-methoxy-3,5,6-trimethylbenzoyloxy}-2-methoxy-3,5,6-trimethylbenzoic Acid] |
| 6.4 | 25 | COc1c(C)c(OC(=O)c2c(C)c(C)c(OCCCN3C(=O)c4ccccc4C3=O)c(C)c2OC)c(C)c(C)c1C(=O)O [Example 64, 4-{4-[3-(1,3-Dioxo-1,3-dihydroisoindol-2-yl)-propoxy]-2-methoxy-3,5,6-trimethylbenzoyloxy}-2-methoxy-3,5,6-trimethylbenzoic Acid] |
| 6.7 | 21 | COc1c(C)c(OC(=O)c2c(C)c(C)c(OCCCN3C(=O)c4ccccc4S3(=O)=O)c(C)c2OC)c(C)c(C)c1C(=O)O [Example 65, 4-{4-[3-(1, 1 -Dihydroxy-3-oxo-3H-benzo[d]-isothiazole-2-yl)propoxy]-2-methoxy-3,5,6-trimethylbenzoyloxy}-2-methoxy-3,5,6-trimethylbenzoic Acid] |
